Measurements taken from patent US20230113944A1, “COMPOSITIONS AND METHODS FOR THE TREATMENT OF NEURODEGENERATIVE DISEASES” (priority 2020, published 2023).
“And” between values parts separate entries of the source, which are not always exact repeats. Identical values can stand only once. “Also recorded” adds a separate entry of the source. Like-named read-outs stand apart in the source and are kept apart here.

Legend:
[1] = target: T1, Human AChE (Homo sapiens, UniProt P22303); assay: biochemical; conditions: IC50 AChE
T1 construct: purchased Sigma
T1 sequence (P22303 32-614): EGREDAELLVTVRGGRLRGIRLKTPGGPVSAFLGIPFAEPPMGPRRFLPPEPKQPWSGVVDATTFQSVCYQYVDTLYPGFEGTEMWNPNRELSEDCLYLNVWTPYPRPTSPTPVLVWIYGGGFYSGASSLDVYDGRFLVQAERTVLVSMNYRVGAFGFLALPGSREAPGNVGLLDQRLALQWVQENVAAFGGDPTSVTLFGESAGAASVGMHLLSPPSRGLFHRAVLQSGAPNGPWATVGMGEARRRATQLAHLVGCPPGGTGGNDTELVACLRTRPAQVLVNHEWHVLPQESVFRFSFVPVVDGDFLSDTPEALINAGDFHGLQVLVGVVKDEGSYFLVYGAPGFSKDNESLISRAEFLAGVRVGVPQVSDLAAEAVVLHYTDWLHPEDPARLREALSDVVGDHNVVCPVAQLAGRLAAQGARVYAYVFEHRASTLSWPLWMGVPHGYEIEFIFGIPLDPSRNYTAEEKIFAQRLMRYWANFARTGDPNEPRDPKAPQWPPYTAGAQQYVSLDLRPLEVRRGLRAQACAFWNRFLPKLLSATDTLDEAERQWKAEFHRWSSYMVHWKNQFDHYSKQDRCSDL
Experimental: This acetylcholinesterase (AChE) assay is based on an Amplex Red assay kit (Thermo Fisher A12217). Human AChE (Sigma) was used. Briefly, 5 μL of compounds at the desired concentration were loaded into wells of a 384-well plate. Then, 5 μl of human AChE (30 mU/mL) was loaded into each well, followed by the addition of 10 μL of the working solution which contains 400 μM Amplex Red reagent, 2 U/mL HRP, 0.2 U/mL choline oxidase, and 100 μM acetylcholine. The reaction was monitored for 60 minutes and read at 530/590 nm. AChE IC50 was determined by plotting AChE activity as a percentage of DMSO control using GraphPad Prism software.

[2] = Parallel artificial membrane permeability (IAM column) prediction of CNS permeability; assay type: in vitro ADME
Experimental: To predict the potential for brain permeability, a Regis Technologies analytical column connected to an Agilent HPLC system (Infinity 1260 quaternary pump and multiple wavelength detector; 1200 autosampler) was used. An IAM.PC.DD column was (4.6 mm i.d.×10 cm, particle size 5 μm; pore size 300 Å) conditioned with 20 column volumes of mobile phase or until a stable line was achieved. A mobile phase with a consistent flow rate of 1 mL/min was used comprising 100 mM Na2PO4 (solvent A) and acetonitrile (solvent B); compounds were eluted using a gradient (min/% B: 0/30, 10/60, 11/30, 15/30). Detector settings were 220, 250 and 280 nm and acquisition time was 15 min. The autosampler injected 10 μL of compound at 2 mM final, diluted from 10 mM in DMSO in 70:30 (water:acetonitrile). After elution, compound retention and void volume times were obtained from the chromatogram. The IAM capacity factor: (KIAM) was calculated using the equation: […]
where tr is the retention time of a compound and t0 is the void volume time of the column. To predict CNS permeability, we used the correlation described by the formula below.

[3] = test system: HEK293T Tau RD P301S FRET biosensor (tau biosensor) cells; assay: Donor plus Recipient (D+R) tau propagation assay; assay type: cell-based; conditions: 20 μM, 48 hrs
Experimental: HEK293T Tau RD P301S FRET biosensor (tau biosensor) cells were grown in Dulbecco's Modified Eagle's medium (DMEM) with high glucose, 10% FBS, and 1% Penicillin-streptomycin at 37° C./5% CO2. The lead inhibitors were tested in functional tau propagation “D+R” (Donors plus Recipients) and EMT (EV-mediated transfer) assays using the tau biosensors. Briefly, tau aggregation in donor cells (D) was induced by transfection of tau biosensor cells with human AD brain derived synaptosomal extracts (35 μg of synaptosomal fraction for 5 million cells in one 10 cm dish); control cells were treated with corresponding amount of transfection reagent lipofectamine 2000. After 24 hr incubation, the cells were trypsinized and plated together with DID-labeled recipient cells (R) in a 1:1 ratio in 96-well plates (15,000 of each cell type per well) for D+R assay or 1.5 million of donor cells per well in 6-well plates for EMT assay. Tested compounds or a corresponding amount of DMSO (0.2%) was added to the cell culture medium, DMEM, which contained 10% of exosome-depleted FBS (ThermoFisher, A2720803). Four technical replicates were used for each experimental condition. The inhibitors were tested at 20 μM concentration. […] Tau seed transfer from donor to recipient cells results in FRET signal generation in the DID-positive recipient cells, which was measured by flow cytometry. Integrated FRET density was calculated in the top 30% of DID-positive cell based on DID signal intensity.
(§1) An Attune NxT Flow Cytometer (Invitrogen) equipped with an autosampler and FRET-compatible laser lines and filter sets was used for FRET signal detection. The FRET (CFP/YFP) signal was excited by a 405 nm laser for CFP excitation and detected in the YFP image detection channel. Flow cytometry data was analyzed using FCS Express version 5 software (DeNovo Software California, USA). Integrated FRET density was calculated as a product of percentage FRET positive cells and median of fluorescent intensity of the FRET positive cells as previously established.

[4] = test system: HEK293T Tau RD P301S FRET biosensor (tau biosensor) cells; assay: EV-mediated tau seed transfer (EMT) assay; assay type: cell-based
Experimental: HEK293T Tau RD P301S FRET biosensor (tau biosensor) cells were grown in Dulbecco's Modified Eagle's medium (DMEM) with high glucose, 10% FBS, and 1% Penicillin-streptomycin at 37° C./5% CO2. The lead inhibitors were tested in functional tau propagation “D+R” (Donors plus Recipients) and EMT (EV-mediated transfer) assays using the tau biosensors. Briefly, tau aggregation in donor cells (D) was induced by transfection of tau biosensor cells with human AD brain derived synaptosomal extracts (35 μg of synaptosomal fraction for 5 million cells in one 10 cm dish); control cells were treated with corresponding amount of transfection reagent lipofectamine 2000. After 24 hr incubation, the cells were trypsinized and plated together with DID-labeled recipient cells (R) in a 1:1 ratio in 96-well plates (15,000 of each cell type per well) for D+R assay or 1.5 million of donor cells per well in 6-well plates for EMT assay. Tested compounds or a corresponding amount of DMSO (0.2%) was added to the cell culture medium, DMEM, which contained 10% of exosome-depleted FBS (ThermoFisher, A2720803). Four technical replicates were used for each experimental condition. The inhibitors were tested at 20 μM concentration. In 48 hours 50 μL of culture medium per well were collected for cell viability test (Cytotox 96 non-radioactive cytotoxicity assay, Promega Corp., Madison, Wis.). The cells in D+R assay were harvested at the 48 hr time point and fixed with 2% paraformaldehyde for flow cytometry analysis according to published protocol. Tau seed transfer from donor to recipient cells results in FRET signal generation in the DID-positive recipient cells, which was measured by flow cytometry. Integrated FRET density was calculated in the top 30% of DID-positive cell based on DID signal intensity.
For the EMT assay, cell culture medium from donor cells growing for 48 hours with the compounds at concentrations of 20 μM or a corresponding amount of DMSO (0.2%), was collected and EVs were purified using the ExoQuick-TC kit (SBI biosciences) according to the manufacturer's instructions. Naïve recipient cells were plated in 96 well plates at a density of 20,000 cells per well in exosome-free medium and transfected with donor cell-derived exosomes at 12 hrs. The recipient cells were harvested 60 hours after transfection and FRET signals were analyzed using flow cytometry.
as §1, with “The FRET (CFP/YFP) signal was excited by a 405 nm laser for CFP excitation and detected in the YFP image detection channel.” left out

[5] = Brain pharmacokinetic analysis after SQ dosing
Experimental: Pharmacokinetic (PK) analysis on the leads 8 and 11 to determine brain permeability using wild type mice was performed. The compounds were subcutaneously (SQ) injected at a dose of 20 mg per kg of body weight (mpk). Brain and plasma samples were collected 1, 2, and 4 hours after dosing.

[6] = test system: Tau P301S (PS19 line) tauopathy mouse model; assay: Rapid in vivo assay: IL1β-induced brain EV release; parameters: species or system mice
[7] = test system: HEK293T Tau RD P301S FRET biosensor (tau biosensor) cells; assay: EV-mediated tau seed transfer (EMT) assay; assay type: cell-based; conditions: 20 μM
[8] = target: human serum albumin (HSA) (Homo sapiens, UniProt P02768); assay: Binding to human serum albumin (HSA); conditions: for fraction unbound: human, human serum albumin
Sequence of human serum albumin (HSA) (P02768 25-609): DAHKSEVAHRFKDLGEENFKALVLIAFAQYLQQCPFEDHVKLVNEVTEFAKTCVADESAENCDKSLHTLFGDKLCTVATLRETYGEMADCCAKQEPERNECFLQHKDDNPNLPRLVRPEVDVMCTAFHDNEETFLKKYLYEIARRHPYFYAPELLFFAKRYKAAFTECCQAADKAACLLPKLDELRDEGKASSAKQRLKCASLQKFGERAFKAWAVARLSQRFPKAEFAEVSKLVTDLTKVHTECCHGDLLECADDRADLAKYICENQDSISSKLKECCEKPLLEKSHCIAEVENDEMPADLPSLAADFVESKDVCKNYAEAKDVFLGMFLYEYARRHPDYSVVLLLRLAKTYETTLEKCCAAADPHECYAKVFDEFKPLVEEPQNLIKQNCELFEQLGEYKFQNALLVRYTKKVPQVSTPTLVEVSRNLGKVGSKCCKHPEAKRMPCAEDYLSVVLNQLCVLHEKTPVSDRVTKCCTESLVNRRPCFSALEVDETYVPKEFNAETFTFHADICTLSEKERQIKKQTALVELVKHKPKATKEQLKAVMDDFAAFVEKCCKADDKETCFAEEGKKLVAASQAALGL

[9] = test system: HEK293T Tau RD P301S FRET biosensor cells; assay: Tau biosensor cells seeded with AD brain synaptosomal (P2) extract, FRET signal; assay type: cell-based; conditions: 10 μM, imaged after 24 hrs, vs DMSO
Experimental: Brain autopsy samples were obtained from the University of California Irvine, University of Southern California AD Research Centers, and University of California, Los Angeles. Brain tissue was cryopreserved and synaptosomal fractions (P2-fractions, or P2) were prepared as previously described. In order to prepare P2-extracts, aliquots were quickly defrosted at 37° C. and centrifuged at 10,000×g for 10 min at 4° C. to remove P2 from sucrose. After aspirating the supernatant, cold PBS was added to each sample in Ma 1:5 weight/volume ratio. Samples were then sonicated in 10-second intervals three times, incubated on ice for 30 min and centrifuged at 20,000 g for 20 min at 4° C. P2 extracts were collected and stored at −80° C. Tau biosensor cell treatment and analysis. HEK293T Tau RD P301S FRET biosensor cells (tau biosensors) were growing in the Dulbecco's Modified Eagle's medium (DMEM) with higher glucose, 10% FBS, and 1% Penicillin-streptomycin at 37° C./5% CO2. Cells were plated in 10-sm dishes (3 million cells per dish in the regular medium) and grown for 12 hrs. Cells were transduced with pulled synaptosomal (P2) extracts from AD cases using lipofectamine 2000. […]
Cells were imaged after 24 hrs using automated microscope imaging system (Lionheart FX) equipped with 20× objective and CFP-YFP FRET Image filter cube. […] FRET signal was detected using LSRII flow cytometer (BD biosciences). […]

[10] = target: T2, human nSMase2 (Homo sapiens, UniProt Q9NY59); assay: biochemical; assay type: biochemical; conditions: IC50 nSMase2
T2 construct: expressed in transfected cells; host or cells: HEK293T
T2 sequence (Q9NY59 1-655): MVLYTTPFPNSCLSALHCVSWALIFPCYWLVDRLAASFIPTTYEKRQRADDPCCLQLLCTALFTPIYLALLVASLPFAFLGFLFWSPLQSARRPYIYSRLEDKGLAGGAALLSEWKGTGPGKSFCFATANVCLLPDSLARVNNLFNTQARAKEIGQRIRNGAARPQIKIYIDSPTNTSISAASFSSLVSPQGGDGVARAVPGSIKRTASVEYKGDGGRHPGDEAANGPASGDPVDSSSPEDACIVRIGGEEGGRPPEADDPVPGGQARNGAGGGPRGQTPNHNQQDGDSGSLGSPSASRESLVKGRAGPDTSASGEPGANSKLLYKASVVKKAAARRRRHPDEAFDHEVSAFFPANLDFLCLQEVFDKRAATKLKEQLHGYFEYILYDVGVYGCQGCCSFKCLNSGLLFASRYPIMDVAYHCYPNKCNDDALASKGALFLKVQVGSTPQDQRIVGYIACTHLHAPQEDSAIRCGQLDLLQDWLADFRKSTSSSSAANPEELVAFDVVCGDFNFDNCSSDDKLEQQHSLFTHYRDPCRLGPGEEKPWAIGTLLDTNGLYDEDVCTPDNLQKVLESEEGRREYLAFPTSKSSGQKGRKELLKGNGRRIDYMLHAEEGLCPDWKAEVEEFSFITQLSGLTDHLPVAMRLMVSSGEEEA
Experimental: To evaluate nSMase2 inhibitory activity of tested compounds, cell lysates from HEK293T cells over-expressing human nSMase2 were used as the source of the nSMase2 enzyme. The Amplex Red Sphingomyelinase activity assay was performed according to previously a described protocol^1. Confluent cells were washed with PBS and harvested with lysis buffer [100 mM Tris-HCl pH 7.5, 100 mM sucrose, 100 μM PMSF, 1× protease inhibitor cocktail] using a cell scraper, and then sonicated 3 times on ice for 10 sec and centrifuged at 10,000×g for 10 min at 4° C. to remove remaining cell debris. An initial screening of a compound library was performed using 50 μM compound concentrations. In secondary testing, selected compounds were analyzed at multiple compound concentrations and plotted as a percentage of DMSO control; dose-response curves were generated to determine IC50s using GraphPad Prism software (GraphPad Software, La Jolla Calif.). […] Activity of the enzyme in the presence of the different concentrations of the inhibitors was plotted against substrate concentration and the maximal rate of the enzymatic reaction (Vmax) and Michaelis constant were calculated using GraphPad Prism.

CN1c2ccc(OC(=O)Nc3ccncc3)cc2[C@]2(C)CCO[C@H]12 [Compound 8]
IC50 [1]: 6 µM
CNS perm (PAMPA) ([2]; PAMPA, 2 mM): 1.9
tau seed transfer from donor to recipient cells, D+R assay [3]: suppress tau propagation; also recorded: significantly suppresses
tau seed transfer from donor to recipient cells, EMT assay ([4]; 20 μM, donor cells 48 hrs): suppress tau propagation; also recorded: significantly suppresses
brain penetration (compound levels in brain tissue, LC-MS/MS) ([5]; mice, 20 mg/kg SQ): penetrated the brain
concentration at 1 h ([5]; mouse, in vivo, 20 mg/kg): 61 ng/g and ~200 nM
time of peak brain levels after SQ dosing ([5]; wild type mice, 20 mg/kg SQ): around one
IL1β-induced tau release by exosomes ([6]; 20 mg/kg SQ): less effective
IL1β-induced brain EV / exosomal release (small EV concentration, TRPS) ([6]; mouse, in vivo, 20 mg/kg): didn't induce the same level of suppression
EV size distribution of donor-derived EVs (TRPS) [7]: did not affect
concentrations of exosomal-type small EVs from donor cells [7]: decreased
levels of exosomal markers CD63, CD81, and syntenin-1 in donor EVs ([7]; vs DMSO control): reduced
degree of binding to human serum albumin (HSA) [8]: low degree of binding
fraction unbound [8]: 0.28

O=c1[nH]c(=S)[nH]c(-c2ccccc2)c1Cc1c(O)ccc2ccccc12 [DDL-112, cambinol]
amount of FRET-positive tau aggregates (microscopy) [9]: visibly decreased

CCN(C)C(=O)Oc1cccc([C@H](C)N(C)C)c1 [rivastigmine, reference compound]
EV-mediated transfer from donor to recipient cells ([4]; preliminary experiments, data not shown): may partially suppress

CC[C@H]1C[C@@]2(C)c3cc(OC(=O)Nc4ccccc4)ccc3N(C)[C@H]2O1 [Compound 9]
IC50 [10]: > 5 µM
IC50 [1]: 2.5 µM
CNS perm (PAMPA) [2]: 3
fraction unbound [8]: 0.07

CN1c2ccc(OC(=O)NC3CCCCC3)cc2[C@]2(C)CCO[C@H]12 [Compound 5]
IC50 [10]: 3.4 µM
IC50 [1]: 0.3 µM
CNS perm (PAMPA) [2]: 2.8
fraction unbound [8]: 0.17
